Measured values: US20260217674A1 (priority 2023, published 2026)
Where two headings read alike, the source gives them in different places.

Legend:
[1] = molecular target: acetylcholinesterase (AChE) (Homo sapiens, UniProt P22303); test: biochemical; type: biochemical; settings: for inhibition at 0.001 µM: read-out: % Inhibition (1 nM); for inhibition at 0.01 µM: read-out: % Inhibition (10 nM); for inhibition at 0.1 µM: read-out: % Inhibition (100 nM)
Protocol: A solution of each tested compound is prepared by dissolving the compound in DMSO at 1 mM stock solution and diluting with water to the following concentration 100 nM, 10 nM and 1 nM.
The procedure of MAK119 kit assay of Sigma Aldrich (colorimetric test) has been followed as described:
The Working Reagent (MAK119C) of the kit is prepared fresh and used within 30 minutes.
A solution B made with […] of water and […] of Calibrator (MAK119B of the kit) is distributed into separate wells of the 96-well plate. […] of the solution of the tested compound is added into wells and then […] of the solution A is added to all sample wells.
The plate was incubated at room temperature for 2 min and the initial absorbance at 412 nm (A412)ini was measured. After 10 min of incubation at room temperature the final measurement (A412)final.
The following calculation is then achieved: […] Inhibition was calculated by comparing the absorbance of the samples containing the tested compounds at 412 nm (A412) and of the absorbance of the negative and positive controls after 12 min of incubation.

[2] = system: VGLUT3^T8I/T8I mice; test: Activity-based anorexia (ABA) model in hypocholinergic VGLUT3^T8I/T8I mice; type: in vivo; settings: for percentage of mice weighing at least 75% of their baseline body weight: after 8 days
From the text: Self-starvation behaviors are modeled in the activity-based anorexia (ABA) test (Klenotich, S. J., Dulawa, 2012 Methods Mol Biol 829, 377-93). In this test, animals are housed in the presence of a running wheel. Access to food is progressively restricted over a period of 8 days. For these animal experiments, an hypocholinergic mouse model was used. The type 3 atypical vesicular transporter (VGLUT3) is expressed by all cholinergic striatal interneurons (El Mestikawy et al. 2011, Nat Rev Neurosci 12(4), 204-16).
In 2015, the El Mestikawy team discovered a p.T8I variant of VGLUT3 expressed in patients suffering from substance use disorder and from eating disorders (Sakae et al. Mol Psychiatry, 2015, 20(11), 1448-59). Mice expressing this variant (VGLUT3^T8I/T8I mice) have a reduced cholinergic tone in the striatum and are more vulnerable to self-starvation in the ABA model. In other terms, VGLUT3^T8I/T8I mice present the same main symptomology than anorexic patients and are considered to be a model of choice for anorexia.
The ABA model was performed as described by Klenotich and Dulawa (Klenotich, S. J., Dulawa, 2012 Methods Mol Biol 829, 377-93) and as previously reported (Favier, M., et al., J Clin Invest 130, 6616-6630 (2020)). For habituation, all mice were individually housed in cages with running wheels for 7 days with unrestricted access to food, water and running wheel. After the adaptation period, all mice were maintained in the same running wheel cages for 8 additional days. Access to food was progressively restricted, from 8 h (day 1) to 2 h (day 8) per day. Body weight and food intake were measured daily before and after food access, respectively. […]. Mice were treated daily 30 min before the start of food access, during both baseline and food restriction phases.

[3] = compound 1 nM, absorbance 412 nm, 12 min incubation
[4] = compound 10 nM, absorbance 412 nm, 12 min incubation
[5] = compound 100 nM, absorbance 412 nm, 12 min incubation

Sequence of acetylcholinesterase (AChE) (P22303 32-614): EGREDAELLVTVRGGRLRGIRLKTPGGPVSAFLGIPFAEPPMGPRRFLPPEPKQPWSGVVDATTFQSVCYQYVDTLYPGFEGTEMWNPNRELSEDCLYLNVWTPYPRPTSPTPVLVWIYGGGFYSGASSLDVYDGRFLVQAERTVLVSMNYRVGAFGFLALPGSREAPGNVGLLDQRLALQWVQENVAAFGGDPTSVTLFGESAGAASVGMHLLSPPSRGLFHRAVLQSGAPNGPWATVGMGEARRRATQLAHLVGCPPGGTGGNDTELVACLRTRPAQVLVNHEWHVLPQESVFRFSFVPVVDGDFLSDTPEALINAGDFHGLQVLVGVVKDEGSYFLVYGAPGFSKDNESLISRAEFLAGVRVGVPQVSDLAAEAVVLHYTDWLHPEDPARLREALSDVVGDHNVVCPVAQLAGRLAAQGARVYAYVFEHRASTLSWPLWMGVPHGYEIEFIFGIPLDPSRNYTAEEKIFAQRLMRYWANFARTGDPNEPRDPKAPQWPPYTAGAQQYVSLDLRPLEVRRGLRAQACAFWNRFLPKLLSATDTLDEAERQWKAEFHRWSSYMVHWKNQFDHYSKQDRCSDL

COc1ccc2c(c1)C=C/C(=C/Oc1cc3c(cc1OC)C(=O)C(CC1CCN(Cc4ccccc4)CC1)C3)N2C(C)C (centres unmarked) [Compound 56]
inhibition at 0.001 µM [1, 3]: 50%
inhibition at 0.01 µM [1, 4]: 75%
inhibition at 0.1 µM [1, 5]: 100%
percentage of mice weighing at least 75% of their baseline body weight ([2]; 0.01 mg/kg daily i.p.): about 90%
percentage of mice weighing at least 75% of their baseline body weight ([2]; 0.03 mg/kg daily i.p., FIG. 1(B)): 60%
efficiency in reducing the food restriction (food intake) ([2]; donquine 0.01 mg/kg versus donepezil 0.03 mg/kg daily i.p., FIG. 1(C)): more efficient than donepezil at 0.03 mg/kg

COc1cc2c(cc1OC[n+]1cccc3ccc(O)cc31)CC(CC1CCN(Cc3ccccc3)CC1)C2=O (centres unmarked) [Compound 57]
inhibition at 0.01 µM [1]: 100%
inhibition at 0.1 µM [1]: 100%

COc1cc2c(cc1OC[n+]1cccc3cccc(N)c31)CC(CC1CCN(Cc3ccccc3)CC1)C2=O (centres unmarked) [Compound 59]
inhibition at 0.01 µM [1, 4]: 100%
inhibition at 0.1 µM [1, 5]: 100%

COc1cc2c(cc1OCc1ccc3cccc(N)c3[n+]1C)CC(CC1CCN(Cc3ccccc3)CC1)C2=O (centres unmarked) [Compound 62]
inhibition at 0.01 µM [1, 4]: 100%
inhibition at 0.1 µM [1, 5]: 100%

COc1cc2c(cc1OCc1ccc3c(Cl)cc[n+](C)c3c1)CC(CC1CCN(Cc3ccccc3)CC1)C2=O (centres unmarked) [Compound 63]
inhibition at 0.001 µM [1]: 75%
inhibition at 0.01 µM [1]: 75%
inhibition at 0.1 µM [1]: 75%

COc1cc2c(cc1OCc1ccc3ccc[n+](C)c3c1)CC(CC1CCN(Cc3ccccc3)CC1)C2=O (centres unmarked) [Compound 64]
inhibition at 0.001 µM [1, 3]: 25%
inhibition at 0.01 µM [1, 4]: 100%
inhibition at 0.1 µM [1, 5]: 100%

COc1cc2c(cc1OCc1cc[n+](C(C)C)c3ccccc13)CC(CC1CCN(Cc3ccccc3)CC1)C2=O (centres unmarked) [Compound 75]
% Inhibition (10 nM) [1, 4]: 100%
% Inhibition (100 nM) [1, 5]: 100%

COc1cc2c(cc1OCc1ccc3ccccc3[n+]1C(C)C)CC(CC1CCN(Cc3ccccc3)CC1)C2=O (centres unmarked) [Compound 76]
inhibition at 0.01 µM [1, 4]: 100%
inhibition at 0.1 µM [1, 5]: 100%

COc1cc2c(cc1OC)C(=O)C(CC1CCN(Cc3ccccc3)CC1)C2 (centres unmarked) [Donepezil, donepezil, reference compound]
efficiency in reducing the number of mice losing weight until 75% of baseline bodyweight or less ([2]; donepezil 0.03 mg/kg versus donquine 0.01 mg/kg daily i.p., FIG. 1(D)): less efficient
